Experimental data reported in ChEMBL document CHEMBL1145534 (2007).
Values after ≈ are worked out from the molar mass of the structure shown.

Assays:
Format in all cases: functional
[1] = tested on: Streptococcus; assay: Antimicrobial activity against beta hemolytic Streptococcus group C at 0.5 ug/ml by broth microdilution method
[2] = tested on: Streptococcus equinus; assay: Antimicrobial activity against viridans group Streptococcus bovis at 0.5 ug/ml by broth microdilution method
[3] = tested on: Rothia mucilaginosa; assay: Antimicrobial activity against Rothia mucilaginosa by broth microdilution method
[4] = tested on: Streptococcus salivarius; assay: Antimicrobial activity against viridans group Streptococcus salivarius at 0.12 ug/ml by broth microdilution method
[5] = tested on: Streptococcus oralis; assay: Antimicrobial activity against viridans group Streptococcus oralis with G2576T rRNA mutation at 4 ug/ml by broth microdilution method
[6] = tested on: Micrococcus luteus; assay: Antimicrobial activity against Micrococcus luteus at 0.25 ug/ml by broth microdilution method
[7] = tested on: Corynebacterium sp.; assay: Antimicrobial activity against Corynebacterium spp. at 2 ug/ml by broth microdilution method
[8] = tested on: Streptococcus salivarius; assay: Antimicrobial activity against viridans group Streptococcus salivarius by broth microdilution method
[9] = tested on: Enterococcus raffinosus; assay: Antimicrobial activity against Enterococcus raffinosus at 0.25 ug/ml by broth microdilution method
[10] = tested on: Enterococcus hirae; assay: Antimicrobial activity against Enterococcus hirae by broth microdilution method
[11] = tested on: Enterococcus casseliflavus; assay: Antimicrobial activity against Enterococcus casseliflavus at 2 ug/ml by broth microdilution method
[12] = tested on: Bacillus sp.; assay: Antimicrobial activity against Bacillus spp. at 0.5 ug/ml by broth microdilution method; settings: Bacillus sp. (in: firmicutes)
[13] = tested on: Streptococcus salivarius; assay: Antimicrobial activity against viridans group Streptococcus salivarius at <= 0.06 ug/ml by broth microdilution method
[14] = tested on: Corynebacterium sp.; assay: Antimicrobial activity against Corynebacterium spp. at 0.5 ug/ml by broth microdilution method
[15] = tested on: Streptococcus equinus; assay: Antimicrobial activity against viridans group Streptococcus bovis at 0.12 ug/ml by broth microdilution method
[16] = tested on: Streptococcus anginosus; assay: Antimicrobial activity against viridans group Streptococcus anginosus at <= 0.06 ug/ml by broth microdilution method
[17] = tested on: Streptococcus oralis; assay: Antimicrobial activity against viridans group Streptococcus oralis at 0.5 ug/ml by broth microdilution method
[18] = tested on: Streptococcus gordonii; assay: Antimicrobial activity against viridans group Streptococcus gordonii by broth microdilution method
[19] = tested on: Corynebacterium striatum; assay: Antimicrobial activity against Corynebacterium striatum at 0.12 ug/ml by broth microdilution method
[20] = tested on: Streptococcus vestibularis; assay: Antimicrobial activity against viridans group Streptococcus vestibularis at 0.12 ug/ml by broth microdilution method
[21] = tested on: Rothia mucilaginosa; assay: Antimicrobial activity against Rothia mucilaginosa at 2 ug/ml by broth microdilution method
[22] = tested on: Enterococcus gallinarum; assay: Antimicrobial activity against Enterococcus gallinarum by broth microdilution method
[23] = tested on: Enterococcus gallinarum; assay: Antimicrobial activity against Enterococcus gallinarum at 2 ug/ml by broth microdilution method
[24] = tested on: Corynebacterium pseudodiphtheriticum; assay: Antimicrobial activity against Corynebacterium pseudodiphtheriticum at 0.5 ug/ml by broth microdilution method
[25] = tested on: Micrococcus luteus; assay: Antimicrobial activity against Micrococcus luteus at 1 ug/ml by broth microdilution method
[26] = tested on: Enterococcus raffinosus; assay: Antimicrobial activity against Enterococcus raffinosus at 2 ug/ml by broth microdilution method
[27] = tested on: Enterococcus durans; assay: Antimicrobial activity against Enterococcus durans by broth microdilution method
[28] = tested on: Enterococcus casseliflavus; assay: Antimicrobial activity against Enterococcus casseliflavus at 4 ug/ml by broth microdilution method
[29] = tested on: Streptococcus vestibularis; assay: Antimicrobial activity against viridans group Streptococcus vestibularis at 1 ug/ml by broth microdilution method
[30] = tested on: Streptococcus intermedius; assay: Antimicrobial activity against viridans group Streptococcus intermedius at 0.25 ug/ml by broth microdilution method
[31] = tested on: Corynebacterium jeikeium; assay: Antimicrobial activity against Corynebacterium jeikeium at <= 0.06 ug/ml by broth microdilution method
[32] = tested on: Streptococcus mitis; assay: Antimicrobial activity against viridans group Streptococcus mitis at <= 0.06 ug/ml by broth microdilution method
[33] = tested on: Micrococcus luteus; assay: Antimicrobial activity against Micrococcus luteus at 0.5 ug/ml by broth microdilution method
[34] = tested on: Enterococcus hirae; assay: Antimicrobial activity against Enterococcus hirae at 1 ug/ml by broth microdilution method
[35] = tested on: Enterococcus durans; assay: Antimicrobial activity against Enterococcus durans at 0.12 ug/ml by broth microdilution method
[36] = tested on: Corynebacterium sp.; assay: Antimicrobial activity against Corynebacterium spp. at 0.25 ug/ml by broth microdilution method

## CC(=O)NC[C@H]1CN(c2ccc(N3CCOCC3)c(F)c2)C(=O)O1 [LINEZOLID]
[1]
  inhibition at 0.5 µg/mL: 16.6%
[2]
  inhibition at 0.5 µg/mL: 23.8%
[3]
  MIC50: 0.5 µg/mL (≈ 1.48 µM)
  MIC90: 1 µg/mL (≈ 2.96 µM)
[4]
  inhibition at 0.12 µg/mL: 1.1%
[5]
  inhibition at 4 µg/mL: 99.3%
[6]
  inhibition at 0.25 µg/mL: 3.4%
[7]
  inhibition at 2 µg/mL: 100%
[8]
  MIC50: 1 µg/mL (≈ 2.96 µM)
  MIC90: 1 µg/mL (≈ 2.96 µM)
[9]
  inhibition at 0.25 µg/mL: 0%
[10]
  MIC50: 2 µg/mL (≈ 5.93 µM)
  MIC90: 2 µg/mL (≈ 5.93 µM)
[11]
  inhibition at 2 µg/mL: 96.9%
[12]
  inhibition at 0.5 µg/mL: 31.7%
[13]
  Inhibition: 0%
[14]
  inhibition at 0.5 µg/mL: 92.4%
[15]
  inhibition at 0.12 µg/mL: 0%
[16]
  Inhibition: 2.9%
[17]
  inhibition at 0.5 µg/mL: 34.5%
[18]
  MIC50: 1 µg/mL (≈ 2.96 µM)
  MIC90: 1 µg/mL (≈ 2.96 µM)
[19]
  inhibition at 0.12 µg/mL: 12%
[20]
  inhibition at 0.12 µg/mL: 0%
[21]
  inhibition at 2 µg/mL: 100%
[22]
  MIC50: 2 µg/mL (≈ 5.93 µM)
  MIC90: 2 µg/mL (≈ 5.93 µM)
[23]
  inhibition at 2 µg/mL: 99.2%
[24]
  inhibition at 0.5 µg/mL: 90.9%
[25]
  inhibition at 1 µg/mL: 100%
[26]
  inhibition at 2 µg/mL: 100%
[27]
  MIC50: 2 µg/mL (≈ 5.93 µM)
  MIC90: 2 µg/mL (≈ 5.93 µM)
[28]
  inhibition at 4 µg/mL: 100%
[29]
  inhibition at 1 µg/mL: 100%
[30]
  inhibition at 0.25 µg/mL: 0%
[31]
  Inhibition: 1.7%
[32]
  Inhibition: 0.3%
[33]
  inhibition at 0.5 µg/mL: 75.9%
[34]
  inhibition at 1 µg/mL: 37.5%
[35]
  inhibition at 0.12 µg/mL: 0%
[36]
  inhibition at 0.25 µg/mL: 68.2%
